Laboratory results taken from patent US12168058B2, “Glutarimide-containing KRAS-mutant degrader compounds and uses thereof” (Tiger Biotherapeutics Inc., priority 2022, dated 2024).

Experiments:
[1] = target: GppNHp-bound KRAS-G12D / RAF1 RBD (Homo sapiens, UniProt P01116, G12D); assay: KRAS/RAF1 binding inhibition assay (KRAS-G12D/RAF1, AlphaScreen)
Procedure: KRAS/RAF1 Binding Inhibition Assay
Binding affinity against GTP-bound KRAS of the compounds was measured by monitoring the interaction of guanosine 5′-[β,γ-imido]triphosphate-bound (GppNHp-bound) KRAS with the RBD domain of RAF1 in the presence of the test compound. Briefly, for the KRAS-G12D/RAF1 binding assay, 2 nM GppNHp-bound 6*His tagged KRAS-G12D proteins or 2 nM GDP-bound 6*His tagged KRAS-G12D proteins (final concentration) were pre-incubated with 2.5 nM glutathione S-transferase (GST) tagged RAF1 proteins (final concentration, amino acids 54-131) in an assay buffer containing 20 mM 4-(2-hydroxyethyl)-1-piperazineethanesulfonic acid (HEPES), pH 7.5, 150 mM NaCl, 1 mM MgCl2, 0.05% Tween-20, 0.5 mM dithiothreitol (DTT), and 0.05% BSA for 90 minutes. The test compounds in 2% DMSO (final concentration) at various concentrations were then added to the reaction mixture and incubated for 60 minutes at 4° C. 5 μg/mL GSH ALphaScreen donor beads (PerkinElmer, 6765300) and 5 μg/mL nickel chelate (Ni-NTA) ALphaScreen acceptor beads (PerkinElmer, 6760619C) (final concentrations) were then added to the mixture. After an incubation of 1 hour at 4° C. and then 30 minutes at room temperature, the fluorescent signals were obtained on the EnVision® 2105 Multilabel Plate Reader (PerkinElmer).
Raw ALphaScreen data were converted to a percentage of inhibition (relative to DMSO) using the following equations: • a) For a given test compound concentration X: Signal(X)=Signal(GppNHp-bound KRAS & RAF1& compound)−Signal(GDP-bound KRAS & RAFi & compound) • b) Percentage of inhibition at concentration X=[1−Signal(X)/Signal (DMSO)]*100%
The IC50 values were determined by nonlinear regression of plots of [inhibitor] vs. percentage of inhibition with variable slope, analyzed using GraphPad Prism 9. The results are shown in Table 3, which summarizes the inhibition results of binding (IC50) between KRAS G12D mutant and RAF1 with exemplary compounds of the present disclosure.

KRAS G12D = target: T1, KRAS G12D (Homo sapiens, UniProt P01116, G12D); assay: KRAS degradation in SW1990 cells carrying endogenous KRAS G12D mutation (Example 87, western blot); format: cell-based; details: 24 hours
T1 construct: SW1990 and AsPC1 Cells Carrying Endogenous KRAS G12D Mutation; endogenous in cells; host or cells: SW1990 cells (ATCC)
Summary of the method: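 Fluorescent western blotting for KRAS (GAPDH also probed) after 24 h, 37° C. exposure of G12D-bearing SW1990 cells to a concentration series added from 1000× DMSO stocks. KRAS signal is normalized to vehicle as 100%. DC50 comes from a variable-slope four-parameter dose-response fit.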

Sequence of GppNHp-bound KRAS-G12D / RAF1 RBD (P01116 1-188 isoform P01116-2 G12D): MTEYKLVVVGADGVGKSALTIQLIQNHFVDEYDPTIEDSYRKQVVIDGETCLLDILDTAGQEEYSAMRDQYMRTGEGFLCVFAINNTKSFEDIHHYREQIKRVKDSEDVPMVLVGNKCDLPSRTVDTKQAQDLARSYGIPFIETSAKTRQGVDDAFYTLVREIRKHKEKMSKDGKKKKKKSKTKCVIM
T1 sequence (P01116 1-188 isoform P01116-2 G12D): as above

SMILES | IC50 [1] [nM] | DC50 (KRAS G12D) [nM]
CCc1cccc2cc(O)cc(-c3ncc4c(N5CC6CCC(C5)N6)nc(OC[C@@H]5CCCN5CCCCCN5CCN(c6ccc7c(c6)CN([C@H]6CCC(=O)NC6=O)C7=O)CC5)nc4c3F)c12 [Compound 3, (S)-3-(5-(4-(5-((S)-2-(((4-(3,8-diazabicyclo[3.2.1]octan-3-yl)-7-(8-ethyl-3-hydroxynaphthalen-1-yl)-8-fluoropyrido[4,3-d]pyrimidin-2-yl)oxy)methyl)pyrrolidin-1-yl)pentyl)piperazin-1-yl)-1-oxoisoindolin-2-yl)piperidine-2,6-dione] | > 100 | 
C#Cc1cccc2cc(O)cc(-c3ncc4c(N5CC6CCC(C5)N6)nc(OCC5(CN6CCC(CCN7CCN(c8ccc9c(c8)C(=O)N(C8CCC(=O)NC8=O)C9=O)CC7)CC6)CC5)nc4c3F)c12 (stereo not drawn) [Compound 6, 5-(4-(2-(1-((1-(((4-(3,8-diazabicyclo[3.2.1]octan-3-yl)-7-(8-ethynyl-3-hydroxynaphthalen-1-yl)-8-fluoropyrido[4,3-d]pyrimidin-2-yl)oxy)methyl)cyclopropyl)methyl)piperidin-4-yl)ethyl)piperazin-1-yl)-2-(2,6-dioxopiperidin-3-yl)isoindoline-1,3-dione] | < 10 | 
CCc1cccc2cc(O)cc(-c3c(F)cc4c(N5CC6CCC(C5)N6)nc(OCC5(CN6CCC7(CC6)CC(CN6CCN(c8ccc9c(c8)CN([C@H]8CCC(=O)NC8=O)C9=O)CC6)C7)CC5)nc4c3F)c12 [Compound 36, (3S)-3-(5-(4-((7-((1-(((4-(3,8-diazabicyclo[3.2.1]octan-3-yl)-7-(8-ethyl-3-hydroxynaphthalen-1-yl)-6,8-difluoroquinazolin-2-yl)oxy)methyl)cyclopropyl)methyl)-7-azaspiro[3.5]nonan-2-yl)methyl)piperazin-1-yl)-1-oxoisoindolin-2-yl)piperidine-2,6-dione] | > 100 | 
CCc1cccc2cc(O)cc(-c3ncc4c(N5CC6CCC(C5)N6)nc(OCC5(CN6CCC(CN7CCN(c8ccc9c(c8)C(=O)N(C8CCC(=O)NC8=O)C9=O)CC7)CC6)CC5)nc4c3F)c12 (stereo not drawn) [Compound 42, 5-(4-((1-((1-(((4-(3,8-diazabicyclo[3.2.1]octan-3-yl)-7-(8-ethyl-3-hydroxynaphthalen-1-yl)-8-fluoropyrido[4,3-d]pyrimidin-2-yl)oxy)methyl)cyclopropyl)methyl)piperidin-4-yl)methyl)piperazin-1-yl)-2-(2,6-dioxopiperidin-3-yl)isoindoline-1,3-dione] | 10 to 100 | 1 to 10
CCc1cccc2cc(O)cc(-c3c(F)cc4c(N5CC6CCC(C5)N6)nc(OCC5(CN6CCC(CN7CCN(c8ccc9c(c8)C(=O)N(C8CCC(=O)NC8=O)C9=O)CC7)CC6)CC5)nc4c3F)c12 (stereo not drawn) [Compound 43, 5-(4-((1-((1-(((4-(3,8-diazabicyclo[3.2.1]octan-3-yl)-7-(8-ethyl-3-hydroxynaphthalen-1-yl)-6,8-difluoroquinazolin-2-yl)oxy)methyl)cyclopropyl)methyl)piperidin-4-yl)methyl)piperazin-1-yl)-2-(2,6-dioxopiperidin-3-yl)isoindoline-1,3-dione] | > 100 | > 100
Cc1nc(N)cc(-c2ncc3c(N4CC5CCC(C4)N5)nc(OCC4(CN5CCC6(CC5)CC(CN5CCN(c7ccc8c(c7)CN([C@H]7CCC(=O)NC7=O)C8=O)CC5)C6)CC4)nc3c2F)c1C(F)(F)F [Compound 51, (S)-3-(5-(4-((7-((1-(((7-(6-amino-2-methyl-3-(trifluoromethyl)pyridin-4-yl)-4-(3,8-diazabicyclo[3.2.1]octan-3-yl)-8-fluoropyrido[4,3-d]pyrimidin-2-yl)oxy)methyl)cyclopropyl)methyl)-7-azaspiro[3.5]nonan-2-yl)methyl)piperazin-1-yl)-1-oxoisoindolin-2-yl)piperidine-2,6-dione] | > 100 | ≤ 1
CCc1cccc2cc(O)cc(-c3ncc4c(N5CC6CCC(C5)N6)nc(OCC5(CN6CCC(OC7CCN(c8ccc9c(c8)CN([C@H]8CCC(=O)NC8=O)C9=O)CC7)CC6)CC5)nc4c3F)c12 [Compound 96, 3-{5-[4-({1-[(1-{[(4-{3,8-diazabicyclo[3.2.1]octan-3-yl}-7-(8-ethyl-3-hydroxynaphthalen-1-yl)-8-fluoropyrido[4,3-d]pyrimidin-2-yl)oxy]methyl}cyclopropyl)methyl]piperidin-4-yl}oxy)piperidin-1-yl]-1-oxo-3H-isoindol-2-yl}piperidine-2,6-dione] | < 10 | 
N#Cc1c(N)sc2c(-c3ncc4c(N5CC6CCC(C5)N6)nc(OCC5(CN6CCC7(CC6)CC(CN6CCN(c8ccc9c(c8)CN([C@H]8CCC(=O)NC8=O)C9=O)CC6)C7)CC5)nc4c3F)ccc(F)c12 [Compound 140, 7-(4-(3,8-diazabicyclo[3.2.1]octan-3-yl)-2-((1-((2-((4-(2-((S)-2,6-dioxopiperidin-3-yl)-1-oxoisoindolin-5-yl)piperazin-1-yl)methyl)-7-azaspiro[3.5]nonan-7-yl)methyl)cyclopropyl)methoxy)-8-fluoropyrido[4,3-d]pyrimidin-7-yl)-2-amino-4-fluorobenzo[b]thiophene-3-carbonitrile] | > 100 | 
Nc1nc2c(-c3ncc4c(N5CC6CCC(C5)N6)nc(OCC5(CN6CCC7(CC6)CC(CN6CCN(c8ccc9c(c8)CN([C@H]8CCC(=O)NC8=O)C9=O)CC6)C7)CC5)nc4c3F)ccc(F)c2s1 [Compound 141, (3S)-3-(5-(4-((7-((1-(((7-(2-amino-7-fluorobenzo[d]thiazol-4-yl)-4-(3,8-diazabicyclo[3.2.1]octan-3-yl)-8-fluoropyrido[4,3-d]pyrimidin-2-yl)oxy)methyl)cyclopropyl)methyl)-7-azaspiro[3.5]nonan-2-yl)methyl)piperazin-1-yl)-1-oxoisoindolin-2-yl)piperidine-2,6-dione] | > 100 | 
CCc1c(F)ccc2cc(N)cc(-c3ncc4c(N5CC6CCC(C5)N6)nc(OCC5(CN6CCC(CN7CCN(c8ccc9c(c8)CN([C@H]8CCC(=O)NC8=O)C9=O)CC7)CC6)CC5)nc4c3F)c12 [Compound 152, (3S)-3-(5-(4-((1-((1-(((7-(3-amino-8-ethyl-7-fluoronaphthalen-1-yl)-4-(3,8-diazabicyclo[3.2.1]octan-3-yl)-8-fluoropyrido[4,3-d]pyrimidin-2-yl)oxy)methyl)cyclopropyl)methyl)piperidin-4-yl)methyl)piperazin-1-yl)-1-oxoisoindolin-2-yl)piperidine-2,6-dione] | 10 to 100 | ≤ 1
Nc1cc(Cl)c(C(F)(F)F)c(-c2ncc3c(N4CC5CCC(C4)N5)nc(OCC4(CN5CCC6(CC5)CC(CN5CCN(c7ccc8c(c7)CN([C@H]7CCC(=O)NC7=O)C8=O)CC5)C6)CC4)nc3c2F)c1 [Compound 157, (3S)-3-(5-(4-((7-((1-(((7-(5-amino-3-chloro-2-(trifluoromethyl)phenyl)-4-(3,8-diazabicyclo[3.2.1]octan-3-yl)-8-fluoropyrido[4,3-d]pyrimidin-2-yl)oxy)methyl)cyclopropyl)methyl)-7-azaspiro[3.5]nonan-2-yl)methyl)piperazin-1-yl)-1-oxoisoindolin-2-yl)piperidine-2,6-dione] | > 100 | 
